Patent EP2157088A1, “INDICYANINE DYES AND THE DERIVATIVES THEREOF FOR ANALYSING BIOLOGICAL MICROMOLECULES” (UCHREZHDENIE ROSSIISKOI AKADEMII NAUK INSTITUT …, priority 2007, dated 2008)
Where a name gives a salt, the structure may show the parent alone.

Key:
Type in all cases: physicochemical
[1] = Quantum efficiency of fluorescence, measured versus a reference dye
Experimental: For all indodicarbocyanine dyes (I) (A1) - (A30) and (B1) - (B7) of the invention, there are determined the quantum efficiency of fluorescence in methanol and in aqueous phosphate buffered saline (Table 1, Fig. 3). The measurements are performed versus dyes of formula (I) (R1= -CH3, R2= R6= -SO3^-; R3= -(CH2)5COOH, R4= -C2H5, R5= -H) whose quantum efficiency of fluorescence in PBS is 0.27 (Mader O., K. Reider, H.-J. Egelhaaaf, R, Fischer, R. Brock, Structure Properties of Pentamethine Indocyanine Dyes: Identification of New Dyes for Life Science Applications. Bioconjugate Chem, 2004, vol. 15, pp. 70-78). In methanol, dyes (A10, A22, A25, A29, A30) have the upper-range of quantum efficiency of fluorescence (Φ ∼ 0.3), but in PBS, dyes (A10, A22, A25, A29, A30) have the maximal Φ -value.

[2] = Molar extinction coefficient in methanol and PBS; parameters: ε·10^-5: unit not given here
Experimental: For all indodicarbocyanine dyes (I) (A1) - (A30) and (B1) - (B7) of the invention, there are determined the molar extinction coefficients in methanol and in aqueous phosphate buffered saline (PBS) (10 mM potassium phosphate buffer, sodium chloride concentration is 0.9%, pH 7.4). In methanol, indodicarbocyanine (A1, A8, A10-A12, A17, A23) has the upper-range of molar extinction coefficient (ε >[…]). In aqueous phosphate buffered saline (PBS), dyes (A10, A23, A30) have the maximal ε-value (Fig. 2).

[3] = Relative efficiency of fluorescence / absolute sensitivity of label, normalized to dye A30 in PBS; conditions: for Sensitivity of record 655/ 690: excitation 655 nm, record 690 nm; for Sensitivity of record max/ max: excitation and record in absorption and fluorescence maxima, ε*Φ normalized to A30 in PBS; for Sensitivity of record 635/ 670: excitation 635 nm, record 670 nm
Excerpt: The data obtained were as follows: • on excitation and record in absorption and fluorescence maxima, the relative efficiency of fluorescence exceeds 0.80 for dyes (A10), (A22), (A23), (A25), and (A30) in methanol and for dyes (A22), (A25), and (A30) in PBS (Table 1, Fig. 4), whereas for dyes of formula (I) (R1 = -CH3, R2= R6= -SO3^-; R3= -(CH2)5COOH, R4= -C2H5; R5= -H) the values are 0.69 in methanol and 0.67 in PBS; • on excitation at wavelength 655 nm and record at 690 nm, the relative efficiency of fluorescence exceeds 0.25 for dyes (A25) and (A30) in methanol and is higher than 0.18 for dyes (A24) and (A30) in PBS (Table 1, Fig. 5), whereas for dyes of formula (I) (R1 = -CH3, R2 = R6= -SO3^-; R3= -(CH2)5COOH, R4= -C2H5; R5= -H) the values are 0.18 in methanol and 0.11 in PBS; • on excitation at wavelength 635 nm and record at 670 nm, the relative efficiency of fluorescence exceeds 0.50 for dyes (A1), (A11), (A23) in methanol and is higher than 0.45 for dyes (A22), (A25), and (A30) in PBS (Table 1, Fig. 6), whereas for dyes of formula (I) (R1= -CH3, R2= R6= -SO3^-; R3= -(CH2)5COOH, R4= -C2H5; R5= -H) the values are 0.44 in methanol and 0.38 in PBS.
Term sensitivity of fluorescent analysis is defined by the absolute sensitivity of label that may be represented as the product of molar extinction coefficient by quantum efficiency of fluorescence (ε*Φ). Thus, there are determined the absolute sensitivity of indodicarbocyanines (A1-A30, B1-B7) in appropriate absorption and fluorescence maxima in methanol and in aqueous phosphate buffered saline. The values are normalized to the maximal value obtained for dye (A30) in PBS (Table 1). In methanol, dyes (A10, A22, A23, A25, A30) have the upper-range of absolute sensitivity, but in PBS, dyes (A10, A22, A25, A29, A30) have the maximal values of sensitivity (Fig. 4).
To determine the most appropriate dyes for instrument setting, there are measured the relative efficiency of fluorescence of dyes at wavelength of excitation and record of the instrument (655 nm. / 690 nm). The maximal values appear to be specific to dyes (A25) and (A30) in methanol, and to dyes (A19, A22, A25, A29, A30) in PBS (Table 1, Fig. 5).
There are also measured the relative efficiency of fluorescence at wavelength of excitation and record of the instrument (635 nm / 670 nm). The maximal values appear to be specific to dyes (A1, A10, A11, A23) in methanol, and to dyes (A10, A22, A25, A29, A30) in PBS (Table 1, Fig. 6).

[4] = Absorption and fluorescence maxima of the dyes
Excerpt: An insertion of methyl group at 5- and 7-positions of indolenyne cycle produces a bathochromic shift in the absorption and fluorescent spectra. As to the rest sulfur containing dyes, the spectral characteristics thereof appear to be in the same range (between about λmax 648 nm and λem 669 nm) (Fig. 1),

[5] = PBS (10 mM potassium phosphate buffer, 0.9% sodium chloride, pH 7.4)

Row | Compound | Φ (quantum efficiency of fluorescence) ([1]; MeOH) | Φ (quantum efficiency of fluorescence) ([1]; PBS) | Sensitivity of record 635/ 670 ([3]; PBS) | Sensitivity of record 655/ 690 ([3]; PBS) | Sensitivity of record max/ max ([3]; PBS) | other results
1 | CCN1C(=CC=CC=CC2=[N+](CCCCS(=O)(=O)[O-])c3ccccc3C2(C)CCCCC(=O)O)C(C)(C)c2ccccc21 (stereo not shown) [A1, 3-(4-carboxybutyl)-N-(4-sulfobutyl)-3,3',3'-trimethyl-N'-ethylindodicarbocyanine] | 0.25 | 0.13 | 0.123 | 0.153 | 0.372 | ε·10^-5 ([2]; MeOH): 2.47±0.02; ε·10^-5 [2, 5]: 2.06±0.02; Sensitivity of record 655/ 690 ([3]; MeOH): 0.025; Sensitivity of record max/ max ([3]; MeOH): 0.737; λmax^abs ([4]; MeOH): 644 nm; λmax^em ([4]; MeOH): 662 nm; λmax^abs ([4]; PBS): 643 nm; λmax^em ([4]; PBS): 657 nm
2 | CC[N+]1=C(/C=C/C=C/C=C2/N(CCCCS(=O)(=O)[O-])c3ccccc3C2(C)CCCCC(=O)O)C(C)(C)c2cc(C)ccc21 (stereo not shown) [A2, 3-(4-Carboxybutyl)-N-(4-sulfobutyl)-3,3',3',5'-tetramethyl-N'-ethylindodicarbocyanine] | 0.17 | 0.09 | 0.184 | 0.068 | 0.261 | ε·10^-5 ([2]; MeOH): 2.01±0.01; ε·10^-5 [2, 5]: 1.99±0.03; Sensitivity of record 635/ 670 ([3]; MeOH): 0.320; Sensitivity of record 655/ 690 ([3]; MeOH): 0.149; Sensitivity of record max/ max ([3]; MeOH): 0.442; λmax^abs ([4]; MeOH): 649 nm; λmax^em ([4]; MeOH): 667 nm; λmax^abs ([4]; PBS): 647 nm; λmax^em ([4]; PBS): 662 nm
3 | CC[N+]1=C(/C=C/C=C/C=C2/N(CCCCS(=O)(=O)[O-])c3ccccc3C2(C)CCCCC(=O)O)C(C)(C)c2cc(C)cc(C)c21 (stereo not shown) [A3, 3-(4-Carboxybutyl)-3,3',3',5',7'-pentamethyl-N-(4-sulfobutyl)-N'-ethylindodicarbocyanine] | 0.12 | 0.08 | 0.132 | 0.069 | 0.199 | ε·10^-5 ([2]; MeOH): 1.93±0.01; ε·10^-5 [2, 5]: 1.84±0.01; Sensitivity of record 635/ 670 ([3]; MeOH): 0.210; Sensitivity of record 655/ 690 ([3]; MeOH): 0.138; Sensitivity of record max/ max ([3]; MeOH): 0.314; λmax^abs ([4]; MeOH): 652 nm; λmax^em ([4]; MeOH): 670 nm; λmax^abs ([4]; PBS): 650 nm; λmax^em ([4]; PBS): 665 nm
4 | CC1(C)C(C=CC=CC=C2N(CCCCS(=O)(=O)O)c3ccccc3C2(C)CCCCC(=O)O)=[N+](CCCCS(=O)(=O)[O-])c2ccccc21 (stereo not shown) [A10, N,N'-di(4-sulfobutyl)-3-(4-carboxybutyl)-3,3',3'-trimethylindodicarbocyanine, sodium salt] | ~0.3 | maximal | maximal |  | maximal | Sensitivity of record 635/ 670 ([3]; MeOH): maximal
5 | Cc1ccc2c(c1)C(C)(CCCCC(=O)O)C(C=CC=CC=C1N(CCCCS(=O)(=O)[O-])c3ccccc3C1(C)C)=[N+]2CCCCS(=O)(=O)[O-].[Na+] (stereo not shown) [A17, N,N'-di(4-sulfobutyl)-3-(4-carboxybutyl)-3,3',3',5-tetramethylindodicarbocyanine, sodium salt] |  |  |  |  |  | molar extinction coefficient (ε) ([2]; in methanol): > 220000 M⁻¹ cm⁻¹
6 | CC1(C)C(/C=C/C=C/C=C2/N(CCCCS(=O)(=O)O)c3ccccc3C2(C)CCCCC(=O)O)=[N+](CCCCS(=O)(=O)O)c2ccc(S(=O)(=O)[O-])cc21 (stereo not shown) [A23, N,N'-di(4-sulfobutyl)-3-(4-carboxybutyl)-5'-sulfo-3,3',3'-trimethylindodicarbocyanine, disodium salt] |  |  |  |  |  | molar extinction coefficient (ε) ([2]; in aqueous phosphate buffered saline (PBS)): maximal
7 | Cc1ccc2c(c1)C(C)(C)C(=CC=CC=CC1=[N+](CCCCS(=O)(=O)[O-])c3ccc(CCC(=O)O)cc3C1(C)C)N2CCCCS(=O)(=O)[O-].[Na+] [B4, N,N'-disulfobutyl-5-carboxyethyl-3,3,3',3',5'-pentamethylindodicarbocyanine, sodium salt] | 0.19 |  |  |  |  | 
8 | CC1(C)C(=CC=CC=CC2=[N+](CCCCS(=O)(=O)[O-])c3ccc(CCC(=O)O)cc3C2(C)C)N(CCCCS(=O)(=O)[O-])c2ccccc21.[Na+] [B5, N,N'-disulfobutyl-5-carboxyethyl-3,3,3',3'-tetramethylindodicarbocyanine, sodium salt] | 0.17 |  |  |  |  | molar extinction coefficient ([2]; solvent not stated): about 200,000

The next lines start with results.

Row | Φ (quantum efficiency of fluorescence) ([1]; MeOH) | Φ (quantum efficiency of fluorescence) ([1]; PBS) | Sensitivity of record 635/ 670 ([3]; PBS) | Sensitivity of record 655/ 690 ([3]; PBS) | Sensitivity of record max/ max ([3]; PBS) | Compound | other results
9 |  |  |  | maximal |  | Cc1ccc2c(c1)C(C)(C)C(=CC=CC=CC1=[N+](CCCCS(=O)(=O)[O-])c3ccc(C)cc3C1(C)CCCCC(=O)O)N2CCCCS(=O)(=O)[O-].[Na+] (stereo not shown) [A19, N,N'-di(4-sulfobutyl)-3-(4-carboxybutyl)-3,3',3',5,5'-pentamethylindodicarbocyanine, sodium salt] | 
10 | ~0.3 | maximal |  | maximal |  | CCN1C(=CC=CC=CC2=[N+](CC)c3ccc(S(=O)(=O)[O-])cc3C2(C)CCCCC(=O)O)C(C)(C)c2cc(S(=O)(=O)[O-])ccc21.[Na+] (stereo not shown) [A22, 5,5'-disulfo-N,N'-diethyl-3-(4-carboxybutyl)-3,3',3'-trimethylindodicarbocyanine, sodium salt] | 
11 |  |  |  | higher than 0.18 |  | CC1(C)C(=CC=CC=CC2=[N+](CCCCS(=O)(=O)[O-])c3ccc(S(=O)(=O)[O-])cc3C2(C)CCCCC(=O)O)N(CCCCS(=O)(=O)[O-])c2ccccc21.[Na+].[Na+] (stereo not shown) [A24, N,N'-di(4-sulfobutyl)-3-(4-carboxybutyl)-5-sulfo-3,3',3'-trimethylindodicarbocyanine, disodium salt] | 
12 |  |  |  | maximal |  | CC[N+]1=C(/C=C/C=C/C=C2/N(CCCCS(=O)(=O)O)c3ccc(S(=O)(=O)[O-])cc3C2(C)CCCCC(=O)O)C(C)(C)c2cc(S(=O)(=O)O)ccc21 (stereo not shown) [A25, 5,5'-disulfo-3-(4-carboxybutyl)-N-(4-sulfobutyl)-3,3',3'-trimethyl-N'-ethylindodicarbocyanine, disodium salt] | 
13 |  | maximal | maximal | maximal | maximal | CCN1/C(=C/C=C/C=C/C2=[N+](CCCCS(=O)(=O)O)c3ccc(S(=O)(=O)O)cc3C2(C)C)C(C)(CCCCC(=O)O)c2cc(S(=O)(=O)[O-])ccc21 (stereo not shown) [A29, 5,5'-disulfo-3-(4-carboxybutyl)-N'-(4-sulfobutyl)-3,3';3'-trimethyl-N-ethylindodicarbocyanine, disodium salt] | 
